From US20210009575A1, “HYDROXYISOXAZOLINES AND DERIVATIVES THEREOF” (Bayer Aktiengesellschaft, priority 2017, published 2021)
Where two headings read alike, the source gives them in different places.

Assays:
[1] = physchem
[2] = system: Puccinia recondita; assay: In vivo preventive test on Puccinia recondita (brown rust on wheat); details: 264 h, read-out: efficacy
[3] = system: Colletotrichum lindemuthianum; assay: Colletotrichum lindemuthianum in vitro cell test; format: cell-based; details: 144 h, read-out: efficacy
[4] = for LogP: method [a]: LC-UV, acidic range, Table 1
[5] = 500 ppm of active ingredient, wheat sprayed 24 hours before contamination, evaluated 11 days after the inoculation
[6] = 20 ppm of active ingredient, inhibition of fungal growth, 6 days incubation, liquid culture

| SMILES | chromatographic logP [1] | pest or weed control at 500 ppm [2, 5] | inhibition of growth at 20 ppm [3, 6] | other results |
| --- | --- | --- | --- | --- |
| CN(C(=O)c1ccc(C(=O)/C=C(\O)C(F)(F)F)cc1)c1ccccc1 [Compound 1b-01] | 2.17 | – | – | – |
| CCc1noc(-c2ccc(C(=O)/C=C(\O)C(F)(F)F)cc2)n1 [Compound 1b-02, 1-[4-(3-Ethyl-1,2,4-oxadiazol-5-yl)phenyl]-4,4,4-trifluoro-3-hydroxy-but-2-en-1-one] | 2.43 | – | – | – |
| COC(=O)c1ccc(C(=O)CC(=O)C(F)(F)Cl)cc1 [Compound 1b-04, methyl 4-(4-chloro-4,4-difluoro-3-oxobutanoyl)benzoate] | 2.11 | – | – | – |
| Cc1ccc(C)n1-c1ccc(C(=O)CC(=O)C(F)(F)F)cc1 [Compound 1b-35, 1-[4-(2,5-dimethyl-1H-pyrrol-1-yl)phenyl]-4,4,4-trifluoro-1,3-butanedione] | 3.21 | – | – | – |
| OC1(C(F)(F)F)CC(c2ccc(C#CC3CC3)cc2)=NO1 (stereo not shown) [Ia-031, 3-[4-(cvclopropvlethvnvl)phenyl]-5-(trifluoromethyl)-4,5-dihydro-1,2-oxazol-5-ol] | 3.41 | 80 to 89% | 90 to 100% | – |
| CON=C(C)c1ccc(C2=NOC(O)(C(F)(F)F)C2)cc1 (stereo not shown) [Ia-037, 3-[4-(N-methoxvethanimidovl)phenyl]-5-(trifluoromethyl)-4,5-dihydro-1,2-oxazol-5-ol] | 2.98 | – | 90 to 100% | – |
| CC(=O)c1ccc(C2=NOC(O)(C(F)(F)F)C2)cc1 (stereo not shown) [Ia-038, 1-{4-[5-hydroxy-5-(trifluoromethyl)-4,5-dihydro-1,2-oxazol-3-yl]phenyl}ethanone] | 2.11 | 90 to 100% | 90 to 100% | – |
| CC(O)c1ccc(C2=NOC(O)(C(F)(F)F)C2)cc1 (stereo not shown) [Ia-044, 3-[4-(1-hydroxyethyl)phenyl]-5-(trifluoromethyl)-4,5-dihydro-1,2-oxazol-5-ol] | 1.78 | 90 to 100% | 80 to 89% | – |
| OC1(C(F)(F)F)CC(c2ccc(-c3ccc(F)cc3)cc2)=NO1 (stereo not shown) [Ia-075, 3-(4′-fluoro[biphenyl]-4-yl)-5-(trifluoromethyl)-4,5-dihydro-1,2-oxazol-5-ol] | 3.46 | 80 to 89% | 90 to 100% | – |
| OC1(C(F)(F)F)CC(c2ccc(-c3cncnc3)cc2)=NO1 (stereo not shown) [Ia-087, 3-[4-(pyrimidin-5-yl)phenyl]-5-(trifluoromethyl)-4,5-dihydro-1,2-oxazol-5-ol] | 1.86 | 90 to 100% | 90 to 100% | – |
| CCc1noc(-c2ccc(C3=NOC(OC(C)=O)(C(F)(F)F)C3)cc2)n1 (stereo not shown) [Ia-095, [3-[4-(3-Ethyl-1,2,4-oxadiazol-5-yl)phenyl]-5-(trifluoromethyl)-4H-isoxazol-5-yl]acetate] | – | – | – | LogP [4]: 3.68^[a] |
| OC1(C(F)(F)F)CC(c2ccc(-c3ccc4sccc4c3)cc2)=NO1 (stereo not shown) [Ia-108] | – | – | – | LogP [4]: 3.94^[a] |
| CN(C)C(=O)Oc1ccc(C2=NOC(O)(C(F)(F)Cl)C2)cc1 (stereo not shown) [Ib-095, 4-{5-[Chloro(difluoro)methyl]-5-hydroxy-4,5-dihydro-1,2-oxazol-3-yl}phenyl dimethylcarbamate] | – | – | – | pest or weed control at 500 ppm [2]: 90 to 100%; chromatographic logP [4]: 2.35; inhibition of growth at 20 ppm [3]: 80 to 89% |

Now from value to compound, other results behind:

| chromatographic logP [1] | SMILES | pest or weed control at 500 ppm [2, 5] | inhibition of growth at 20 ppm [3, 6] | other results |
| --- | --- | --- | --- | --- |
| 2.88 | CCc1noc(-c2ccc(C3=NOC(O)(C(F)(F)F)C3)cc2)n1 (stereo not shown) [Ia-093, 3-[4-(3-Ethyl-1,2,4-oxadiazol-5-yl)phenyl]-5-(trifluoromethyl)-4H-isoxazol-5-ol] | 90 to 100% | 90 to 100% | – |
| 0.63 | NCc1ccc(C2=NOC(O)(C(F)(F)F)C2)cc1 (stereo not shown) [Ia-112, 3-(4-Aminomethyl-phenyl)-5-trifluoromethyl-4,5-dihydro-isoxazol-5-ol] | 90 to 100% | – | – |
| 1.49 | Nc1ccc(C2=NOC(O)(C(F)(F)F)C2)cc1 (stereo not shown) [Ia-114, 3-(4-aminophenyl)-4,5-dihydro-5-(trifluoromethyl)-5-isoxazolol] | 90 to 100% | 80 to 89% | – |
| 2.76 | O=C(Nc1ccc(F)cc1F)c1ccc(C2=NOC(O)(C(F)(F)Cl)C2)cc1 (stereo not shown) [Ib-030, 4-{5-[chloro(difluoro)methyl]-5-hydroxy-4,5-dihydro-1,2-oxazol-3-vl}-N-(2,4-difluorophenyl)benzamide] | – | – | – |
| 1.84 | O=C(O)c1ccc(C2=NOC(O)(C(F)(F)Cl)C2)cc1 (stereo not shown) [Ib-048, 4-{5-[chloro(difluoro)methyl]-5-hydroxy-4,5-dihydro-1,2-oxazol-3-yl}benzoic acid] | – | – | – |
| 2.55 | COC(=O)c1ccc(C2=NOC(O)(C(F)(F)Cl)C2)cc1 (stereo not shown) [Ib-049, methyl 4-{5-[chloro(difluoro)methyl]-5-hydroxy-4,5-dihydro-1,2-oxazol-3-yl}benzoate] | – | – | – |
